# Patent US20090169478A1, “In Vivo Imaging and Therapy with Magnetic Nanoparticle Conjugates” (priority 2005, published 2009)
# “Also recorded” adds a separate entry of the source. Non-standard residues stand in square brackets, D forms with d. Residues, ends and D or L forms follow the SMILES beside them. No end group written: not given here. pGlu = O=C1CC[C@@H](C(=O)O)N1
# What was measured:
# [1] = Surface charge of nanoparticles; assay type: physicochemical
# From the text: The magnetic nanoparticle preferably comprises primarily Fe3O4, rather than the Fe2O3 that has been used for most prior magnetic nanoparticles. The Fe3O4 particle surface contains amine groups that initially prevent agglomeration, eliminating the need for a coating such as a dextran or other intermediate coatings such as have been used in most prior magnetic nanoparticles. […] The only “coating” that need be used is the targeting agent itself, one with specificity for the target cells (or a combination of targeting agent and toxin or drug). The targeting agent, and the optional toxin or drug are covalently linked to the nanoparticle via amide linkages formed by reaction with the amine groups on the particles. The targeting agent may, for example, be a hormone, ligand, or antibody, or a fragment thereof to assist in selectively directing the particles to the cells of interest and facilitating their intracellular up-take and accumulation. The optional toxin or drug may, for example, be a lytic peptide, other peptide toxin, or other toxin or drug. Our studies have shown that reducing the amount of ligand/coating on the nanoparticles increases macrophage recognition and incorporation. By optionally distancing the ligand from the nanoparticle surface through a spacer molecule, ligand specificity may be retained while increasing cellular uptake. […]
# [2] = test system: MDA-MB-435S.luc xenograft-bearing mouse; settings: 250 mg/kg tail vein, 20 hours, 6 mice per group
# Experimental: The mice were euthanized 20 hours after the injections; and their tumors, lungs, liver, heart, kidney, pancreas, spleen, and gonads were collected. Portions of the organs and tumors were embedded in paraffin and tested for iron using Prussian blue staining.
# [3] = test system: MDA-MB-435S.luc xenograft-bearing mouse; test: Iron content of tissue homogenates, tumor and kidney (Example 9); assay type: in vivo; settings: 250 mg/kg tail vein, 20 hours
# Experimental: Portions of the tissue samples from Example 8 were homogenized, and iron content was determined in calorimetric assays. The amounts of accumulated iron per gram total organ mass could thus be determined. […] When nanoparticles alone were injected, the iron content in tumors was only about 4%.
# [4] = test system: breast cancer cells MDA-MB-435S; test: In vitro uptake of ligand-conjugated SPIONs (Example 10); assay type: cell-based, human; settings: MDA-MB-435S cells, no free ligand
# Experimental: (§1) LHRH−SPIONs and βCG/LH-SPIONs were tested on breast cancer cells MDA-MB-435S, on Chinese Hamster Ovary cells, on rat LH-receptor-transfected Chinese Hamster Ovary cells, and on mouse Sertoli cells. Experiments were conducted in the presence of LHRH, βCG, or neither. […] In addition, we observed that co-incubation with the free peptide ligands blocked the receptors that otherwise enabled the ligand-conjugated SPIONs to enter cells through receptor-mediated endocytosis. The uptake was then primarily via phagocytosis or pinocytosis at a low rate, similar to that for unconjugated SPIONs. The observed uptake was specific; the quantity of iron nanoparticles within the cells was substantially higher for receptor-mediated uptake.
# [5] = test system: Chinese Hamster Ovary cells; mouse Sertoli cells; test: In vitro uptake in cell lines that do not express the appropriate receptors; assay type: cell-based; settings: listed as LHRH−SPIONs
# Experimental: as §1
# [6] = test system: female nude mice with human breast MDA-MB-435S.luc xenograft; settings: mouse, in vivo
# Experimental: (§2) Targeting Human Breast Cancer Xenograft and their Metastases with LHRH−SPIONs in vivo. To evaluate the distribution of LHRH−SPIONs and unconjugated SPIONs in vivo, female nude mice with human breast MDA-MB-435S.luc xenograft as described above were injected intravenously with 250 mg/kg LHRH-SPIONs or with unconjugated SPIONs, 35 days after tumor inoculation. The mice were sacrificed 20 h after injection, and the organs and tumors were collected, weighed and analyzed for iron and luciferase. Portions of the organs and tumors were homogenized and their iron content determined spectrophotometrically after reaction with Prussian blue, while other portions were analyzed after fixation by transmission electron microscopy.
# The design of this cancer model was such that all tumor cells expressed luciferase, meaning that the presence of luciferase was inherently synonymous with the presence of cancer cells. By contrast, the presence of iron was not inherently synonymous with the presence of cancer cells. The goal of this experiment was to test the efficacy of the novel system at specifically delivering iron to cancer cells.
# (§3) Statistical analyses were conducted on raw data by ANOVA. We obtained the ranks of the data, and then conducted a Kruskal-Wallis test. Differences were considered significant at the P<0.05 level. Rank data and variance stabilizing transformations were included.
# tumor-free mice = settings: mouse, in vivo, iv
# Experimental: as §2, §3
# [7] = test system: mice bearing the MDA-MB-435S.luc tumors; settings: after sequential injections
# From the text: See FIGS. 3(a) through (d), showing photographs of Prussian Blue-stained sections from lungs of mice bearing the MDA-MB-435S.luc tumors. FIG. 3(a) depicts a saline-injected control. FIG. 3(b) depicts injection with unconjugated SPIONs. FIGS. 3 (c) and (d) depict injection with conjugated LHRH−SPIONs.
# human macrophages = test: In vitro macrophage uptake of nanoparticles (Example 26); assay type: cell-based; settings: iron concentration of 20 μg/mL
# [8] = test system: MDA-MB-435S.luc breast cancer cells; test: Effect of spacer molecule on cellular iron uptake (Example 27); assay type: cell-based, human; settings: iron incubation 1 mg/ml, 3 hours; for iron accumulation in the breast cancer cells in the presence of LHRH: free LHRH present
# Experimental: The effect of a spacer molecule on cellular uptake was tested in vitro on MDA-MB-435S.luc breast cancer cells, which express LHRH receptors. Iron incubation was conducted at 1 mg/ml for different conditions for 3 hours. Accumulation in the breast cancer cells was 82.3±25 pg/cell for SPIONs, 165±16 pg/cell for LHRH−SPIONs, and 223±16 pg/cell with LHRH-Glu-SPION. […] These observations support our hypothesis that iron uptake was driven by receptor-mediated endocytosis.
# [9] = test system: MCF-7, MDA-MB-435S.luc and TM4 cell lines; test: In vitro toxicity of constructs on three cell lines, cell line not given; assay type: cell-based; settings: FIG. 4
# From the text: FIG. 4 depicts toxicity measurements of different constructs on three cell lines.
# Pancreatic, prostate, breast, and lung cancers may be targeted by LHRH, linked to a toxin or drug such as a lytic peptide and to a SPION. In one study we tested the use of LHRH−SPIONs conjugated to a toxin or drug for both treatment and imaging of tumors and metastases. A particle with a ligand and a toxin (drug) may be made in at least three different configurations: ligand-toxin(drug)-SPION, ligand-SPION-toxin(drug), or toxin(drug)-ligand-SPION. […] (The potential construct SPION-LHRH-Hecate was not tested in these experiments.) See FIG. 4. […] Based on the results reported above, the introduction of a spacer is expected to improve ligand-receptor interaction; and, in the case of a lytic peptide, to improve the peptide-membrane interaction. The spacer may also improve plasma stability of the particles.
# [10] = test system: MDA-MB-435S.luc tumor bearing mice; test: Treatment of tumor-xenografted mice (Example 29); assay type: in vivo, mouse; settings: for tumor weights at necropsy: tail vein injections at 3, 4 and 5 weeks post-xenograft, 28 days after the start of treatment
# From the text: Mice were sacrificed and necropsied 6 weeks post-xenografts. […] Bodyweights, liver weights, and gonadal weights remained stable during all treatments. The breast cancer tumors and metastases were specifically targeted and destroyed by LHRH-conjugated SPIONs carrying a toxin (hecate). The same particles may be used for simultaneous treatment and imaging, e.g., for directly monitoring treatment response in cancer patients.
# [11] = test system: tumor-xenograft-bearing mice; settings: 2, 10, 30 and 60 days after injection
# Experimental: Pharmacokinetics of iron nanoparticles. To determine the pharmacokinetic profile of SPIONs and their conjugates, 4 groups of tumor-xenograft-bearing mice (n=10) are injected with the various concentrations of conjugated SPIONs as determined above. A fifth group serves as saline control. The mice are housed for 2, 10, 30, and 60 days after injection, and are then sacrificed to determine iron content in peripheral tissues. This experiment uses 50 female nude mice, and will establish the excretion profile of LHRH−SPIONs over a period of 60 days.
# [12] = test system: male nude mice bearing tumors from human prostate cancer line PC-3.luc; settings: mouse, in vivo
# From the text: This experiment employed male nude mice bearing tumors from human prostate cancer line PC-3.luc (with luciferase reporter).
# rats = settings: rat, in vivo, iv, 250 mg/kg; cited from earlier work
compound,measurement,setting,value
LHRH−SPION: Fe3O4 magnetite nanoparticles covalently bound to LHRH by carbodiimide reaction (Example 3),charge of nanoparticles (in words),[1],almost neutral
same,tumors testing positive for iron (Prussian blue staining),[2],Four of six
same,iron located in the tumor (estimate of iron content in tumor and kidney),[3],up to 70%
same,observed uptake,[4],452 pg Fe/cell
same,ligand-mediated uptake in cell lines that did not express the appropriate receptors,[5],did not bind and accumulate; also recorded: substantially lower
same,fraction of injected particles accumulated in primary tumors and metastases,[6],up to 60%
same,relation of level accumulated in the lungs to metastatic load (luciferase activity),[6],linear function of the metastatic load
same,percentage of iron accumulating in kidney,"[6]; iv, 250 mg/kg",3.3%
same,percentage of iron accumulating in lung,"[6]; iv, 250 mg/kg",22.2%
same,percentage of iron accumulating in lung,tumor-free mice,0.9%
same,retention of nanoparticles inside the target cells,[7],at least four weeks
same,"difference in macrophage uptake, SPIONs versus LHRH-SPIONs",human macrophages,thirteen-fold
same,fraction taken up by macrophages,human macrophages,about 5%
same,iron accumulation in the breast cancer cells,[8],165±16 pg/cell
same,iron accumulation in the breast cancer cells in the presence of LHRH,[8],106±26 pg/cell
same,toxicity,[9],not toxic
same,tumor weights at necropsy,[10],0.24 ± 0.09 g
same,predicted depletion of iron from tumor and metastatic tissues,[11],slower depletion
same,"predicted iron content in kidney, liver and spleen over time",[11],decrease rather rapidly with time
same,accumulation in tumor tissue compared to normal (kidney) tissue,[12],preferentially accumulate in tumor tissue
iron oxide nanoparticles,adverse effects,rats,no adverse effects
CC(C)C[C@H](NC(=O)[C@H](C)NC(=O)[C@H](CCCCN)NC(=O)[C@H](CCCCN)NC(=O)[C@H](CC(C)C)NC(=O)[C@H](C)NC(=O)[C@H](CCCCN)NC(=O)[C@H](CCCCN)NC(=O)[C@H](CC(C)C)NC(=O)[C@H](CCCCN)NC(=O)[C@H](CCCCN)NC(=O)[C@H](CC(C)C)NC(=O)[C@H](C)NC(=O)[C@H](CCCCN)NC(=O)[C@H](CCCCN)NC(=O)[C@H](CC(C)C)NC(=O)[C@H](C)NC(=O)[C@H](CCCCN)NC(=O)[C@H](CC(C)C)NC(=O)[C@H](C)NC(=O)[C@H](CC(C)C)NC(=O)[C@H](C)NC(=O)[C@H](Cc1ccccc1)NC(=O)CNC(=O)[C@@H]1CCCN1C(=O)[C@H](CCCNC(=N)N)NC(=O)[C@H](CC(C)C)NC(=O)CNC(=O)[C@H](Cc1ccc(O)cc1)NC(=O)[C@H](CO)NC(=O)[C@H](Cc1c[nH]c2ccccc12)NC(=O)[C@H](Cc1c[nH]cn1)NC(=O)[C@@H]1CCC(=O)N1)C(=O)O [LHRH-Hecate] ([pGlu]HWSYGLRPGFALALKALKKALKKLKKALKKAL-OH; C-terminus assumed),change of tumor volumes (and tumor weights),[10]; during and after treatment,arrested at the start of treatment and then diminished significantly; also recorded: decreased
same,"lymph node metastases, assayed by luciferase activity at necropsy","[10]; mouse, in vivo",destroyed
same,tumor weights at necropsy,[10],0.07 ± 0.04 g
"LHRH-Glu-SPION: LHRH bound to SPION through a glutaric acid spacer (Examples 5 and 7) (QHWSYGLRPG; ends and bridges not checked; also: bound to SPION through a glutaric acid spacer, site not given here; UniProt P01148 24-33, looked up)",iron accumulation in the breast cancer cells,[8],223±16 pg/cell
same,iron accumulation in the breast cancer cells in the presence of LHRH,[8],123±25 pg/cell
